Measurements taken from patent US20240368118A1, “CEREBLON BINDING COMPOUNDS, COMPOSITIONS THEREOF, AND METHODS OF TREATMENT THEREWITH” (CELGENE CORPORATION, priority 2021, published 2024).
Structures can show the parent of a compound that is named as a salt.

Target: T1, AR (Homo sapiens, UniProt P10275)
T1 construct: endogenous in cells; host or cells: VCaP cells
T1 sequence (P10275 1-920): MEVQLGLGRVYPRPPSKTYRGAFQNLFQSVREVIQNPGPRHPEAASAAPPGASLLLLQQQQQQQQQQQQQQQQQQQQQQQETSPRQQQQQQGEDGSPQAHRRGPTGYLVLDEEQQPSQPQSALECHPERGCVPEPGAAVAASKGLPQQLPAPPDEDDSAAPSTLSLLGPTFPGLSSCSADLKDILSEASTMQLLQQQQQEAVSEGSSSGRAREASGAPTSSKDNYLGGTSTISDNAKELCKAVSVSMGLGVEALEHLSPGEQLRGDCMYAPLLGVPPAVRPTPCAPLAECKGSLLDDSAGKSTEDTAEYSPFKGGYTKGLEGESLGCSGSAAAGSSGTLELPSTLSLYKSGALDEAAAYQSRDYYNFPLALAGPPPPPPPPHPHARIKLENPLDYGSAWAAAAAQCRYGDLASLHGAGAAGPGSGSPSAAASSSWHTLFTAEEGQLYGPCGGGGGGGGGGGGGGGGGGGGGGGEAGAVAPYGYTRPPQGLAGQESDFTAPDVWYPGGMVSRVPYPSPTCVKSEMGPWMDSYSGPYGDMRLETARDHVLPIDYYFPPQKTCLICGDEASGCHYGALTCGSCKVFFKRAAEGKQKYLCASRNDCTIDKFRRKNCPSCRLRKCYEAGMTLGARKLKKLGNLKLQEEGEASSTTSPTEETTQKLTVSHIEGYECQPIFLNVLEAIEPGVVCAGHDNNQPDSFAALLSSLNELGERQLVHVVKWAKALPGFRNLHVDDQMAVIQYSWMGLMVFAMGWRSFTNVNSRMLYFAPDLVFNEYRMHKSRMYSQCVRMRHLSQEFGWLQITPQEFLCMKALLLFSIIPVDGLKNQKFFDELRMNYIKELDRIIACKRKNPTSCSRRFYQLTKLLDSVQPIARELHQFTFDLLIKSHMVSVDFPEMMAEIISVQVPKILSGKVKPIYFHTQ
Experiment: VCAP AR Degradation Assay
Format: cell-based
Conditions: VCaP cells, 24 h; for DC50: AR ELISA, concentration when AR level = 50% of DMSO control; for Ymin: lowest AR level normalized to DMSO control, class symbols
Protocol: VCAP AR Degradation Assay. Test compounds were pre-dispensed into a Corning CellBind 96-well clear bottom plate (Cat #3300) using an acoustic dispenser to make a 10-point concentration series at 1:3 dilution for each compound. The final top concentration of each compound was 5 μM. DMSO at a final concentration of 0.1% was used as a control. VCaP cells cultured in DMEM with 8% fetal bovine serum (FBS) were seeded at 50K cells per well in a 200 μL volume into the compound plate and incubated at 37° C. in a C02 incubator for 24 h. The medium was carefully removed from the cells and the plate was placed on ice. One hundred μL of ice-cold 1× cell lysis buffer from Cell Signaling Technologies (Cat #9803) was added to each well of the cells and the plate was incubated at 4° C. on a shaker for 1 h. Fifteen μL of cell lysate was used for AR ELISA detection using a PathScan Total Sandwich AR ELISA kit (Cell Signaling Technology, Cat #12580). AR levels in compound-treated wells were normalized to that of DMSO control and expressed as percent of control (PoC) (y). A Four Parameter Logistic Model (Sigmoidal Dose-Response Model) was used to determine the compound's DC50, and EC50, using the following equation: […]
The lowest measured AR level normalized to DMSO control in response to compound treatment, termed Y value, was used to characterize the compound-mediated AR degradation efficiency.

Structure (SMILES) | DC50 | Ymin
C[C@@H]1CN(CCO[C@H]2CC[C@H](N3C(=S)N(c4ccc(C#N)c(C(F)(F)F)c4)C(=O)C3(C)C)CC2)C[C@H](C)N1CC(=O)Nc1ccc(C2(C)CCC(=O)NC2=O)cc1 (single isomer, unassigned) [Cmpd 9, hydrochloride] | 0.1 to 10 µM | *** (30%<Y<80%)
C[C@@H]1CN(CCO[C@H]2CC[C@H](N3C(=S)N(c4ccc(C#N)c(C(F)(F)F)c4)C(=O)C3(C)C)CC2)C[C@H](C)N1CC(=O)Nc1ccc(C2(C)CCC(=O)NC2=O)cc1 (single isomer, unassigned) [Cmpd 10, hydrochloride] | 0.1 to 10 µM | *** (30%<Y<80%)
C[C@@H]1CN(CCO[C@H]2CC[C@H](N3C(=S)N(c4ccc(C#N)c(C(F)(F)F)c4)C(=O)C3(C)C)CC2)C[C@H](C)N1CC(=O)Nc1ccc(N2CCC(=O)NC2=O)cc1 [Cmpd 1, 2-((2S,6R)-4-(2-((trans-4-(3-(4-Cyano-3-(trifluoromethyl)phenyl)-5,5-dimethyl-4-oxo-2-thioxoimidazolidin-1-yl)cyclohexyl)oxy)ethyl)-2,6-dimethylpiperazin-1-yl)-N-(4-(2,4-dioxotetrahydropyrimidin-1(2H)-yl)phenyl)acetamide hydrochloride] | 0.1 to 10 µM | *** (30%<Y<80%)
C[C@@H]1CN(CCO[C@H]2CC[C@H](N3C(=S)N(c4ccc(C#N)c(C(F)(F)F)c4)C(=O)C3(C)C)CC2)C[C@H](C)N1CC(=O)Nc1ccc(C2CCC(=O)NC2=O)cc1 (stereo partly drawn) [Cmpd 2, 2-((2S,6R)-4-(2-((trans-4-(3-(4-Cyano-3-(trifluoromethyl)phenyl)-5,5-dimethyl-4-oxo-2-thioxoimidazolidin-1-yl)cyclohexyl)oxy)ethyl)-2,6-dimethylpiperazin-1-yl)-N-(4-(2,6-dioxopiperidin-3-yl)phenyl)acetamide hydrochloride] | 0.005 to 0.015 µM | *** (30%<Y<80%)
C[C@@H]1CN(CCC[C@H]2CC[C@H](N3C(=S)N(c4ccc(C#N)c(C(F)(F)F)c4)C(=O)C3(C)C)CC2)C[C@H](C)N1CC(=O)Nc1ccc(C2CCC(=O)NC2=O)cc1 (stereo partly drawn) [Cmpd 3, 2-((2R,6S)-4-(3-(trans-4-(3-(4-Cyano-3-(trifluoromethyl)phenyl)-5,5-dimethyl-4-oxo-2-thioxoimidazolidin-1-yl)cyclohexyl)propyl)-2,6-dimethylpiperazin-1-yl)-N-(4-(2,6-dioxopiperidin-3-yl)phenyl)acetamide hydrochloride] | 0.005 to 0.015 µM | ** (20%<Y≤30%)
C[C@@H]1CN(CCO[C@H]2CC[C@H](N3C(=S)N(c4ccc(C#N)c(Cl)c4)C(=O)C3(C)C)CC2)C[C@H](C)N1CC(=O)Nc1ccc(C2CCC(=O)NC2=O)cc1 (stereo partly drawn) [Cmpd 4, 2-((2R,6S)-4-(2-((trans-4-(3-(3-Chloro-4-cyanophenyl)-5,5-dimethyl-4-oxo-2-thioxoimidazolidin-1-yl)cyclohexyl)oxy)ethyl)-2,6-dimethylpiperazin-1-yl)-N-(4-(2,6-dioxopiperidin-3-yl)phenyl)acetamide hydrochloride] | ≤ 0.005 µM | *** (30%<Y<80%)
C[C@@H]1CN(CCO[C@H]2CC[C@H](N3C(=S)N(c4ccc(C#N)c(C(F)(F)F)c4)C(=O)C3(C)C)CC2)C[C@H](C)N1CCC(=O)Nc1ccc(C2CCC(=O)NC2=O)cc1 (stereo partly drawn) [Cmpd 5, 3-((2R,6S)-4-(2-((trans-4-(3-(4-Cyano-3-(trifluoromethyl)phenyl)-5,5-dimethyl-4-oxo-2-thioxoimidazolidin-1-yl)cyclohexyl)oxy)ethyl)-2,6-dimethylpiperazin-1-yl)-N-(4-(2,6-dioxopiperidin-3-yl)phenyl)propanamide] | 0.005 to 0.015 µM | *** (30%<Y<80%)
C[C@@H]1CN(CCO[C@H]2CC[C@H](N3C(=S)N(c4cnc(C#N)c(C(F)(F)F)c4)C(=O)C3(C)C)CC2)C[C@H](C)N1CC(=O)Nc1ccc(C2CCC(=O)NC2=O)cc1 (stereo partly drawn) [Cmpd 6, 2-((2R,6S)-4-(2-((trans-4-(3-(6-Cyano-5-(trifluoromethyl)pyridin-3-yl)-5,5-dimethyl-4-oxo-2-thioxoimidazolidin-1-yl)cyclohexyl)oxy)ethyl)-2,6-dimethylpiperazin-1-yl)-N-(4-(2,6-dioxopiperidin-3-yl)phenyl)acetamide hydrochloride] | ≤ 0.005 µM | *** (30%<Y<80%)
CC[C@]1(c2ccc(NC(=O)CN3[C@H](C)CN(CCO[C@H]4CC[C@H](N5C(=S)N(c6ccc(C#N)c(C(F)(F)F)c6)C(=O)C5(C)C)CC4)C[C@@H]3C)cc2)CCC(=O)NC1=O [Cmpd 7, 2-((2S,6R)-4-(2-((trans-4-(3-(4-Cyano-3-(trifluoromethyl)phenyl)-5,5-dimethyl-4-oxo-2-thioxoimidazolidin-1-yl)cyclohexyl)oxy)ethyl)-2,6-dimethylpiperazin-1-yl)-N-(4-((R)-3-ethyl-2,6-dioxopiperidin-3-yl)phenyl)acetamide hydrochloride] | 0.1 to 10 µM | *** (30%<Y<80%)
CC[C@@]1(c2ccc(NC(=O)CN3[C@H](C)CN(CCO[C@H]4CC[C@H](N5C(=S)N(c6ccc(C#N)c(C(F)(F)F)c6)C(=O)C5(C)C)CC4)C[C@@H]3C)cc2)CCC(=O)NC1=O [Cmpd 8, 2-((2S,6R)-4-(2-((trans-4-(3-(4-Cyano-3-(trifluoromethyl)phenyl)-5,5-dimethyl-4-oxo-2-thioxoimidazolidin-1-yl)cyclohexyl)oxy)ethyl)-2,6-dimethylpiperazin-1-yl)-N-(4-((S)-3-ethyl-2,6-dioxopiperidin-3-yl)phenyl)acetamide hydrochloride] | 0.1 to 10 µM | *** (30%<Y<80%)
C[C@@H]1CN(CCO[C@H]2CC[C@H](N3C(=S)N(c4cnc(C#N)c(Cl)c4)C(=O)C3(C)C)CC2)C[C@H](C)N1CC(=O)Nc1ccc(C2CCC(=O)NC2=O)cc1 (stereo partly drawn) [Cmpd 11, 2-((2R,6S)-4-(2-((trans-4-(3-(5-Chloro-6-cyanopyridin-3-yl)-5,5-dimethyl-4-oxo-2-thioxoimidazolidin-1-yl)cyclohexyl)oxy)ethyl)-2,6-dimethylpiperazin-1-yl)-N-(4-(2,6-dioxopiperidin-3-yl)phenyl)acetamide hydrochloride] | ≤ 0.005 µM | ** (20%<Y≤30%)
C[C@@H]1CN(CCCO[C@H]2CC[C@H](N3C(=S)N(c4ccc(C#N)c(C(F)(F)F)c4)C(=O)C3(C)C)CC2)C[C@H](C)N1CC(=O)Nc1ccc(C2CCC(=O)NC2=O)cc1 (stereo partly drawn) [Cmpd 12, 2-((2R,6S)-4-(3-((trans-4-(3-(4-Cyano-3-(trifluoromethyl)phenyl)-5,5-dimethyl-4-oxo-2-thioxoimidazolidin-1-yl)cyclohexyl)oxy)propyl)-2,6-dimethylpiperazin-1-yl)-N-(4-(2,6-dioxopiperidin-3-yl)phenyl)acetamide hydrochloride] | ≤ 0.005 µM | ** (20%<Y≤30%)
C[C@@H]1CN(CCCO[C@H]2CC[C@H](N3C(=S)N(c4cnc(C#N)c(C(F)(F)F)c4)C(=O)C3(C)C)CC2)C[C@H](C)N1CC(=O)Nc1ccc(C2CCC(=O)NC2=O)cc1 (stereo partly drawn) [Cmpd 13, 2-((2R,6S)-4-(3-((trans-4-(3-(6-Cyano-5-(trifluoromethyl)pyridin-3-yl)-5,5-dimethyl-4-oxo-2-thioxoimidazolidin-1-yl)cyclohexyl)oxy)propyl)-2,6-dimethylpiperazin-1-yl)-N-(4-(2,6-dioxopiperidin-3-yl)phenyl)acetamide hydrochloride] | ≤ 0.005 µM | ** (20%<Y≤30%)
C[C@@H]1CN(CCCO[C@H]2CC[C@H](N3C(=S)N(c4ccc(C#N)c(Cl)c4)C(=O)C3(C)C)CC2)C[C@H](C)N1CC(=O)Nc1ccc(C2CCC(=O)NC2=O)cc1 (stereo partly drawn) [Cmpd 14, 2-((2R,6S)-4-(3-((trans-4-(3-(3-Chloro-4-cyanophenyl)-5,5-dimethyl-4-oxo-2-thioxoimidazolidin-1-yl)cyclohexyl)oxy)propyl)-2,6-dimethylpiperazin-1-yl)-N-(4-(2,6-dioxopiperidin-3-yl)phenyl)acetamide hydrochloride] | ≤ 0.005 µM | * (0<Y≤20%)
